Data published in patent publication US20080280879A1, “SUBSTITUTED HETEROCYCLIC DERIVATIVES AND THEIR PHARMACEUTICAL USE AND COMPOSITIONS” (priority 2007, published 2008).
≈ marks a conversion by molar mass, not a printed value.

Assays:
Assay type in all cases: cell-based, Staphylococcus aureus
[1] = test system: Staph aureus 1095 MRSA; test: MIC, microtiter broth dilution (CLSI M7-A7), Assay 1, Table 12 column A, no serum; details: Assay 1, no serum; for MIC: Staphylococcus aureus, MRSA
Outline: (§1)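 Staphylococcus aureus susceptibility is measured by CLSI M7-A7 broth microdilution in microtiter trays. For serum testing, bacteria are inoculated into Mueller-Hinton Broth containing 50% pooled inactivated human serum. The MIC in μg/ml is the lowest concentration preventing visible growth.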

[2] = test system: Staph aureus 2812; test: MIC, microtiter broth dilution (CLSI M7-A7), Assay 1, Table 12 column E, no serum; details: for MIC, column E: Staph aureus 2812, Assay 1, no serum; for MIC: Staphylococcus aureus, 2812, Staph aureus 2812, Assay 1, no serum
Outline: as §1

[3] = test system: Staph aureus 1146; test: MIC in Mueller-Hinton Broth with 50% pooled inactivated human serum, Assay 1, Table 12; details: for MIC, column C: Staph aureus 1146, Assay 1, 50% human serum; for MIC: Staphylococcus aureus, 1146, Staph aureus 1146, Assay 1, 50% human serum, read-out: MIC, column C
Outline: as §1

[4] = test system: Staph aureus 1146; test: MIC, microtiter broth dilution (CLSI M7-A7), Assay 1, Table 12 column B, no serum; details: for MIC, column B: Staph aureus 1146, Assay 1, no serum; for MIC: Staphylococcus aureus, 1146, Staph aureus 1146, Assay 1, no serum
Outline: as §1

[5] = test system: Staph aureus 2811; test: MIC, microtiter broth dilution (CLSI M7-A7), Assay 1, Table 12 column D, no serum; details: for MIC, column D: Staph aureus 2811, Assay 1, no serum; for MIC: Staphylococcus aureus, 2811, Staph aureus 2811, Assay 1, no serum
Outline: as §1

Row | SMILES | MIC, column A [1] | MIC, column E [2] | MIC, column C [3] | MIC, column B [4] | MIC, column D [5] | MIC [1] | MIC [2] | MIC [3] | MIC [4] | MIC [5]
1 | COc1ccc2ncc(Cl)c(C(O)CC[C@@H]3CCN(C4CC(c5cc(F)ccc5F)C4)C[C@@H]3C(=O)O)c2c1 (stereo partly drawn) [Example 209, (3R,4R)-4-[3-(3-chloro-6-methoxyquinolin-4-yl)-3-hydroxypropyl]-1-[3-(2,5-difluorophenyl)cyclobutyl]piperidine-3-carboxylic acid] | <0.0625 µg/mL | <0.0625 µg/mL | 1.00 µg/mL (≈ 1.83 µM) | <0.0625 µg/mL | <0.0625 µg/mL | – | – | – | – | –
2 | COc1ccc2nccc(C(O)CC[C@@H]3CCN(C4CC(c5ccc(OC)c(OC)c5)C4)C[C@@H]3C(=O)O)c2c1 (stereo partly drawn) [Example 32, (3R,4R)-1-[3-(3,4-dimethoxyphenyl)cyclobutyl]-4-[3-hydroxy-3-(6-methoxyquinolin-4-yl)propyl] piperidine-3-carboxylic acid] | – | – | – | – | – | 64 µg/mL (≈ 120 µM) | 64 µg/mL (≈ 120 µM) | > 64 µg/mL | > 64 µg/mL | 64 µg/mL (≈ 120 µM)
3 | COc1ccc2nccc(C(O)CCC3CCN(C[C@@H]4C[C@H]4c4ccccc4)CC3C(=O)O)c2c1 (relative stereo) [Example 25, 4-[3-hydroxy-3-(6-methoxyquinolin-4-yl)propyl]-1-{[(trans)-2-phenylcyclopropyl]methyl}piperidine-3-carboxylic acid] | – | – | – | – | – | 2 µg/mL (≈ 4.21 µM) | 1 µg/mL (≈ 2.11 µM) | 4 µg/mL (≈ 8.43 µM) | 2 µg/mL (≈ 4.21 µM) | 1 µg/mL (≈ 2.11 µM)
4 | COc1ccc2ncc(Cl)c(CCCC3(C(=O)O)CCN(C4CC(c5c(F)cccc5F)C4)C3)c2c1 (centres unmarked) [Example 87, 3-[3-(3-chloro-6-methoxyquinolin-4-yl)propyl]-1-[3-(2,6-difluorophenyl)cyclobutyl] pyrrolidine-3-carboxylic acid] | – | – | – | – | – | ≤ 0.0625 µg/mL | ≤ 0.0625 µg/mL | 8 µg/mL (≈ 15.5 µM) | ≤ 0.0625 µg/mL | ≤ 0.0625 µg/mL
5 | COc1ccc2nccc([C@@H](O)CC[C@@H]3CCN(C4CC(c5ccc(F)c(C#N)c5)C4)C[C@@H]3C(=O)O)c2c1 (stereo partly drawn) [Example 216, (3R,4R)-1-[3-(3-cyano-4-fluorophenyl)cyclobutyl]-4-[(3S)-3-hydroxy-3-(6-methoxyquinolin-4-yl)propyl] piperidine-3-carboxylic acid] | – | – | – | – | – | > 64 µg/mL | 32 µg/mL (≈ 61.8 µM) | 64 µg/mL (≈ 124 µM) | 16 µg/mL (≈ 30.9 µM) | 8 µg/mL (≈ 15.5 µM)
6 | COc1ccc2nccc([C@H](O)CC[C@@H]3CCN(C4CC(c5cccc(F)c5)C4)C[C@@H]3C(=O)O)c2c1 (stereo partly drawn) [Example 91, (3R,4R)-1-[3-(3-fluorophenyl)cyclobutyl]-4-[(3R)-3-hydroxy-3-(6-methoxyquinolin-4-yl)propyl]piperidine-3-carboxylic acid] | – | – | – | – | – | 0.5 µg/mL (≈ 1.02 µM) | 0.25 µg/mL (≈ 0.508 µM) | 8 µg/mL (≈ 16.2 µM) | 0.25 µg/mL (≈ 0.508 µM) | 0.25 µg/mL (≈ 0.508 µM)
7 | COc1ccc2ncc(Cl)c(C(O)CCC3(C(=O)O)CCN(C4CC(c5ccccc5)C4)C3)c2c1 (centres unmarked) [Example 175, 3-[3-(3-chloro-6-methoxyquinolin-4-yl)-3-hydroxypropyl]-1-(3-phenylcyclobutyl)pyrrolidine-3-carboxylic acid] | – | – | – | – | – | 0.5 µg/mL (≈ 1.01 µM) | < 0.0625 µg/mL | 4 µg/mL (≈ 8.08 µM) | < 0.0625 µg/mL | < 0.0625 µg/mL
8 | COc1ccc2ncc(Cl)c(CCNC3(C(=O)O)CCCN(C4CC(c5cccc(C(F)(F)F)c5)C4)CC3)c2c1 (centres unmarked) [Example 157, 4-{[2-(3-chloro-6-methoxyquinolin-4-yl)ethyl]amino}-1-{3-[3-(trifluoromethyl)phenyl]cyclobutyl}azepane-4-carboxylic acid] | – | – | – | – | – | 4 µg/mL (≈ 6.94 µM) | 0.5 µg/mL (≈ 0.868 µM) | > 33 µg/mL | 1 µg/mL (≈ 1.74 µM) | 1 µg/mL (≈ 1.74 µM)
9 | COc1ccc2nccc(C(O)CC[C@@H]3CCN(C4CC(c5ccc(O)c(OC)c5)C4)C[C@@H]3C(=O)O)c2c1 (stereo partly drawn) [Example 33, (3R,4R)-1-[3-(4-hydroxy-3-methoxyphenyl)cyclobutyl]-4-[3-hydroxy-3-(6-methoxyquinolin-4-yl)propyl]piperidine-3-carboxylic acid] | – | – | – | – | – | > 64 µg/mL | > 64 µg/mL | > 64 µg/mL | > 64 µg/mL | > 64 µg/mL
10 | COc1ccc2ncc(F)c(C(O)CCC3(C(=O)O)CCN(C4CC(c5ccccc5)C4)CC3)c2c1 (centres unmarked) [Example 24, 4-[3-(3-fluoro-6-methoxyquinolin-4-yl)-3-hydroxypropyl]-1-(3-phenylcyclobutyl)piperidine-4-carboxylic acid] | – | – | – | – | – | 16 µg/mL (≈ 32.5 µM) | 8 µg/mL (≈ 16.2 µM) | > 64 µg/mL | 4 µg/mL (≈ 8.12 µM) | 4 µg/mL (≈ 8.12 µM)
11 | COc1ccc2nccc(C(O)CC[C@@H]3CCN(C4CC(c5nc(C(C)C)no5)C4)C[C@@H]3C(=O)O)c2c1 (stereo partly drawn) [Example 166, (3R,4R)-4-[3-hydroxy-3-(6-methoxyquinolin-4-yl)propyl]-1-[3-(3-isopropyl-1,2,4-oxadiazol-5-yl)cyclobutyl]piperidine-3-carboxylic acid] | – | – | – | – | – | > 64 µg/mL | > 64 µg/mL | > 64 µg/mL | > 64 µg/mL | > 64 µg/mL
12 | COc1ccc2ncc(F)c(C(O)CC[C@@H]3CCN(C4CC(c5c(F)cccc5F)C4)C[C@@H]3C(=O)O)c2c1 (single isomer, unassigned) [Example 18] | – | – | – | – | – | ≤ 0.0625 µg/mL | ≤ 0.0625 µg/mL | 0.25 µg/mL (≈ 0.473 µM) | ≤ 0.0625 µg/mL | ≤ 0.0625 µg/mL
13 | COc1ccc2nccc([C@@H](O)CC[C@@H]3CCN(C4CC(c5cc(F)ccc5F)C4)C[C@@H]3C(=O)O)c2c1 (stereo partly drawn) [Example 40, (3R,4R)-1-[3-(2,5-difluorophenyl)cyclobutyl]-4-[(3S)-3-hydroxy-3-(6-methoxyquinolin-4-yl)propyl] piperidine-3-carboxylic acid] | – | – | – | – | – | 0.125 µg/mL (≈ 0.245 µM) | ≤ 0.0625 µg/mL | 1.26 µg/mL (≈ 2.47 µM) | ≤ 0.0625 µg/mL | ≤ 0.0625 µg/mL
14 | COc1ccc2ncc(Cl)c(CCCC3(C(=O)O)CCN(C4CC(c5ccccc5)C4)CC3O)c2c1 (centres unmarked) [Example 109, 4-[3-(3-chloro-6-methoxyquinolin-4-yl)propyl]-3-hydroxy-1-(3-phenylcyclobutyl)piperidine-4-carboxylic acid] | – | – | – | – | – | 1 µg/mL (≈ 1.96 µM) | 1 µg/mL (≈ 1.96 µM) | > 64 µg/mL | 0.5 µg/mL (≈ 0.982 µM) | 0.25 µg/mL (≈ 0.491 µM)
15 | COc1ccc2ncc(Cl)c(CCCC3(C(=O)O)CCN(C4CN(c5ccccn5)C4)CC3)c2c1 [Example 126, 4-(3-(3-chloro-6-methoxyquinolin-4-yl)propyl)-1-(1-(pyridin-2-yl)azetidin-3-yl)piperidine-4-carboxylic add] | >64 µg/mL | 4 µg/mL (≈ 8.08 µM) | >64 µg/mL | 8 µg/mL (≈ 16.2 µM) | 2 µg/mL (≈ 4.04 µM) | – | – | – | – | –
16 | COc1ccc2ncc(F)c(CCCC3(C(=O)O)CCN(C4CC(c5ccccc5)C4)CC3)c2n1 (centres unmarked) [Example 106, 4-(3-(3-fluoro-6-methoxy-1,5-naphthyridin-4-yl)propyl)-1-(3-phenylcyclobutyl)piperidine-4-carboxylic acid] | – | – | – | – | – | ≤ 0.0625 µg/mL | ≤ 0.0625 µg/mL | 32 µg/mL (≈ 67 µM) | ≤ 0.0625 µg/mL | ≤ 0.0625 µg/mL
17 | COc1ccc2nccc(C(O)CC[C@@H]3CCN(C4CC(c5nc(CC6CC6)no5)C4)C[C@@H]3C(=O)O)c2c1 (stereo partly drawn) [Example 170, (3R,4R)-1-{3-[3-(cyclopropylmethyl)-1,2,4-oxadiazol-5-yl]cyclobutyl}-4-[3-hydroxy-3-(6-methoxyquinolin-4-yl)propyl]piperidine-3-carboxylic acid] | – | – | – | – | – | > 64 µg/mL | > 64 µg/mL | > 64 µg/mL | > 64 µg/mL | > 64 µg/mL
18 | COc1ccc2ncc(F)c(C(O)CC[C@@H]3CCN(C4CC(c5cc(F)ccc5F)C4)C[C@@H]3C(=O)O)c2n1 (stereo partly drawn) [Example 218, (3R,4R)-1-[3-(2,5-difluorophenyl)cyclobutyl]-4-[3-(3-fluoro-6-methoxy-1,5-naphthyridin-4-yl)-3-hydroxypropyl]piperidine-3-carboxylic acid] | 0.125 µg/mL (≈ 0.236 µM) | <0.0625 µg/mL | 2.00 µg/mL (≈ 3.78 µM) | <0.0625 µg/mL | <0.0625 µg/mL | – | – | – | – | –
19 | COc1ccc2ncc(F)c([C@@H](O)CC[C@@H]3CCN(C4CC(=O)N(c5ccccc5)C4)C[C@@H]3C(=O)O)c2c1 (some centres unmarked) [Example 227] | – | – | – | – | – | 8 µg/mL (≈ 15.3 µM) | 8 µg/mL (≈ 15.3 µM) | 64 µg/mL (≈ 123 µM) | 2 µg/mL (≈ 3.83 µM) | 2 µg/mL (≈ 3.83 µM)
20 | COc1ccc2nccc(C(O)CC[C@@H]3CCN(C4CC(c5ccccn5)C4)C[C@@H]3C(=O)O)c2c1 (stereo partly drawn) [Example 21, (3R,4R)-4-[3-hydroxy-3-(6-methoxyquinolin-4-yl)propyl]-1-(3-pyridin-2-ylcyclobutyl)piperidine-3-carboxylic acid] | – | – | – | – | – | 16 µg/mL (≈ 33.6 µM) | 4 µg/mL (≈ 8.41 µM) | 16 µg/mL (≈ 33.6 µM) | 4 µg/mL (≈ 8.41 µM) | 4 µg/mL (≈ 8.41 µM)
21 | COc1ccc2nccc([C@@H](O)CC[C@@H]3CCN(C4CC(c5ccc(F)cc5F)C4)C[C@@H]3C(=O)O)c2c1 (stereo partly drawn) [Example 37, (3R,4R)-1-[3-(2,4-difluorophenyl)cyclobutyl]-4-[(3S)-3-hydroxy-3-(6-methoxyquinolin-4-yl)propyl] piperidine-3-carboxylic acid] | – | – | – | – | – | 0.25 µg/mL (≈ 0.49 µM) | 0.25 µg/mL (≈ 0.49 µM) | 1 µg/mL (≈ 1.96 µM) | ≤ 0.0625 µg/mL | ≤ 0.0625 µg/mL
22 | COc1ccc2ncc(F)c(CCCC3(C(=O)O)CCN(C4CC(c5c(F)cccc5F)C4)C3)c2c1 (centres unmarked) [Example 174, 1-[3-(2,6-difluorophenyl)cyclobutyl]-3-[3-(3-fluoro-6-methoxyquinolin-4-yl)propyl]pyrrolidine-3-carboxylic acid] | – | – | 4.00 µg/mL (≈ 8.02 µM) | – | – | < 0.0625 µg/mL | < 0.0625 µg/mL | – | < 0.0625 µg/mL | < 0.0625 µg/mL
